Experimental data: patent EP1439177B1, “Antiviral activity and resolution of 2-hydroxymethyl-5-(5-fluorocytosin-1-yl)-1,3-oxathiolane” (Emory University, priority 1991, dated 1992)
Where “and” joins values, the source holds several entries; their conditions need not be identical. Identical values can stand only once. Like-named read-outs stand apart in the source and are kept apart here.

Legend:
HIV = experiment: microbe, parasite or virus in culture; assay type: cell-based; conditions: Human immunodeficiency virus 1; MT4 system
HIV-1 (strain LAV) = experiment: microbe, parasite or virus in culture; assay type: cell-based; conditions: Human immunodeficiency virus 1, PBMC; for inhibition at 0.001 µM / inhibition at 0.005 µM / inhibition at 0.01 µM / inhibition at 0.05 µM / inhibition at 0.1 µM / inhibition at 0.5 µM: read-out: % Inhibition (Corrected)
Text: It is often desirable to screen a number of racemic mixtures of nucleosides as a preliminary step to determine which warrant further resolution into enantiomerically enriched components and further evaluation of antiviral activity. The ability of nucleosides to inhibit HIV can be measured by various experimental techniques. The technique used herein, and described in detail below, measures the inhibition of viral replication in phytohemagglutinin (PHA) stimulated human peripheral blood mononuclear (PBM) cells infected with HIV-1 (strain LAV). The amount of virus produced is determined by measuring the virus-coded reverse transcriptase enzyme. The amount of enzyme produced is proportional to the amount of virus produced.
• A. Three-day-old phytohemagglutinin-stimulated PBM cells (10^6 cells/ml) from hepatitis B and HIV-1 seronegative healthy donors were infected with HIV-1 (strain LAV) at a concentration of about 100 times the 50% tissue culture infectious dose (TICD 50) per ml and cultured in the presence and absence of various concentrations of antiviral compounds. • B. Approximately one hour after infection, the medium, with the compound to be tested (2 times the final concentration in medium) or without compound, was added to the flasks (5 ml; final volume 10 ml). AZT was used as a positive control. • C. The cells were exposed to the virus (about 2 x 10^5 dpm/ml, as determined by reverse transcriptase assay) and then placed in a CO2 incubator. HIV-1 (strain LAV) was obtained from the Center for Disease Control, Atlanta, Georgia. The methods used for culturing the PBM cells, harvesting the virus and determining the reverse transcriptase activity were those described by McDougal et al. (J. Immun. Meth. 76, 171-183, 1985) and Spira et al. (J. Clin. Meth. 25, 97-99, 1987), except that fungizone was not included in the medium (see Schinazi, et al., Antimicrob. Agents Chemother. 32, 1784-1787 (1988); Id., 34:1061-1067 (1990)). • D. On day 6, the cells and supernatant were transferred to a 15 ml tube and centrifuged at about 900 g for 10 minutes. Five ml of supernatant were removed and the virus was concentrated by centrifugation at 40,000 rpm for 30 minutes (Beckman 70.1 Ti rotor). The solubilized virus pellet was processed for determination of the levels of reverse transcriptase. Results are expressed in dpm/ml of sampled supernatant. Virus from smaller volumes of supernatant (1 ml) can also be concentrated by centrifugation prior to solubilization and determination of reverse transcriptase levels.

2.2.15 cells = experiment: Toxicity analysis in 2.2.15 cells, neutral red dye uptake; assay type: cell-based, human; conditions: 330 µM
Description: (§1) Toxicity analyses were performed to assess whether any observed antiviral effects were due to a general effect on cell viability. The method used herein was the measurement of the uptake of neutral red dye, a standard and widely used assay for cell viability in a variety of virus-host systems, including HSV and HIV. Toxicity analyses were performed in 96-well flat bottomed tissue culture plates. Cells for the toxicity analyses were cultured and treated with test compounds with the same schedule as described for the antiviral evaluations below. Each compound was tested at 4 concentrations, each in triplicate cultures (wells "A", "B", and "C"). Uptake of neutral red dye was used to determine the relative level of toxicity. The absorbance of internalized dye at 510 nm (Asin) was used for the quantitative analysis. Values are presented as a percentage of the average Asin values in 9 separate cultures of untreated cells maintained on the same 96-well plate as the test compounds. Dye uptake in the 9 control cultures on plate 5 ranged from 91.6% to 110.4%, and on plate 6 from 96.6% to 109%.

[1] = as above; assay type: cell-based, human; conditions: human, 2.2.15 cells
Description: as §1

HBV = conditions: for INT[…] DNA RI: HBV DNA replication intermediates; for inhibition of the replication of HBV: at the tested levels (Table 7, 10 µM)
Description: A summary and description of the assay for antiviral effects in this culture system and the analysis of HBV DNA has been described (Korba and Milman, 1991, Antiviral Res., 15:217). The antiviral evaluations were performed on two separate passages of cells. All wells, in all plates, were seeded at the same density and at the same time.
Due to the inherent variations in the levels of both intracellular and extracellular HBV DNA, only depressions greater than 3.5-fold (for HBV virion DNA) or 3.0-fold (for HBV DNA replication intermediates) from the average levels for these HBV DNA forms in untreated cells are considered to be statistically significant [P<0.05]. The levels of integrated HBV DNA in each cellular DNA preparation (which remain constant on a per cell basis in these experiments) were used to calculate the levels of intracellular HBV DNA forms, thereby ensuring that equal amounts of cellular DNA were compared between separate samples.

HIV-2 = experiment: microbe, parasite or virus in culture; conditions: Human immunodeficiency virus 2, PBMC
Description: Cell lines were obtained from either human donors, AIDS Research and Reference Reagent Program, NIH, Rockville, Maryland, ATCC, or the Red Cross. The CEM thymidine kinase deficient cells were prepared by sequential passage of CEM cells in the presence of 5-bromo-2'-deoxyuridine.

[2] = Growth inhibition of mitogen-stimulated uninfected human PBM cells, trypan blue exclusion; assay type: cell-based; conditions: human, pbm cells
[3] = test system: granulocyte-macrophage precursor cells; conditions: compared with the (+)-enantiomer and AZT; Figure 12
[4] = test system: uninfected human PBM cells; experiment: Growth inhibition of mitogen-stimulated uninfected human PBM cells, trypan blue exclusion; assay type: cell-based; conditions: uninfected human PBM cells, 6 days; error estimated at ±10%; read-out: Cytotoxicity IC50
[5] = read-out: DYE UPTAKE (% OF CONTROL) WELL A
[6] = read-out: DYE UPTAKE (% OF CONTROL) WELL C
[7] = read-out: DYE UPTAKE (% OF CONTROL) WELLB

CCCC(=O)OC[C@@H]1O[C@H](n2cc(F)c(N)nc2=O)CS1 (racemic) [5'-O-butyrate ester of (±)-FTC]
EC50 (HIV): 40 nM
EC50 (HIV-1 (strain LAV)): 0.0017 µM

CC(=O)Nc1nc(=O)n([C@@H]2CS[C@H](CO)O2)cc1F (racemic) [N^4-acetyl derivative of (±)-FTC]
EC50 (HIV-1 (strain LAV)): 0.0028 µM

Nc1nc(=O)n([C@@H]2CS[C@H](CO)O2)cc1F (single isomer, unassigned) [(-)-FTC, (-)-β-L-2-hydroxymthyl-5-(5-fluorocytosin-1-yl)-1,3-oxathiolane]
toxicity at the highest concentration used for the toxicity tests (2.2.15 cells): appeared to be toxic
viability at 10 µM [1, 5]: 94.3%
viability at 10 µM [1, 6]: 92.2%
viability at 10 µM [1, 7]: 94.9%
viability at 30 µM [1, 5]: 98.7%
viability at 30 µM [1, 6]: 96.4%
viability at 30 µM [1, 7]: 94.3%
viability at 100 µM [1, 5]: 64.1%
viability at 100 µM [1, 6]: 77.6%
viability at 100 µM [1, 7]: 66.6%
viability at 300 µM [1, 5]: 53%
viability at 300 µM [1, 6]: 51.5%
viability at 300 µM [1, 7]: 51.1%
HBV VIRION DNA DAY 0 (HBV; 0.25 µM, replicate wells): 89 pg/ml CULTURE MEDIUM
HBV VIRION DNA DAY 4 (HBV; 0.25 µM, replicate wells): 15 pg/ml CULTURE MEDIUM
INT[…] DNA RI (HBV; 1 µM, 24 hours following the 9th day of treatment): 2 pg/µg CELL DNA and 3 pg/µg CELL DNA and 4 pg/µg CELL DNA
HBV VIRION DNA DAY 0 (HBV; 1 µM, replicate wells): 89 pg/ml CULTURE MEDIUM
HBV VIRION DNA DAY 4 (HBV; 1 µM, replicate wells): 15 pg/ml CULTURE MEDIUM and 22 pg/ml CULTURE MEDIUM
INT[…] DNA MONO. (HBV; 1 µM, episomal 3.2 kb HBV genomes, 24 hours following the 9th day of treatment): 1.7 pg/µg CELL DNA and 1.4 pg/µg CELL DNA
INT[…] DNA RI (HBV; 4 µM, 24 hours following the 9th day of treatment): 1 pg/µg CELL DNA and 2 pg/µg CELL DNA
inhibition of the replication of HBV (HBV): significantly inhibited
EC50 (HIV-2): 0.7 nM
CC50 at 144 h [2]: > 100000 nM
toxicity (IC50) on colony formation [3]: less toxic
inhibition at 0.001 µM (HIV-1 (strain LAV)): 23.8%
inhibition at 0.005 µM (HIV-1 (strain LAV)): 43.3%
inhibition at 0.01 µM (HIV-1 (strain LAV)): 24.8%
inhibition at 0.05 µM (HIV-1 (strain LAV)): 76.2%
inhibition at 0.1 µM (HIV-1 (strain LAV)): 93.5%
inhibition at 0.5 µM (HIV-1 (strain LAV)): 97.6%
EC50 (HIV-1 (strain LAV); read-out: Antiviral EC50): 0.008 µM
EC50 (HIV-1 (strain LAV); read-out: EC50): 0.0077 µM
EC50 (HIV-1 (strain LAV); read-out: EC50:µM): 0.02 µM

Nc1nc(=O)n([C@H]2CS[C@@H](CO)O2)cc1F [(+)-FTC, (+)-β-D-2-hydroxymethyl-5-(5-fluorocytosin-1-yl)-1,3-oxathiolane]
toxicity at the highest concentration used for the toxicity tests (2.2.15 cells): appeared to be toxic
viability at 10 µM [1, 5]: 90.9%
viability at 10 µM [1, 6]: 90.5%
viability at 10 µM [1, 7]: 99.4%
viability at 30 µM [1, 5]: 81.1%
viability at 30 µM [1, 6]: 88.1%
viability at 30 µM [1, 7]: 88.3%
viability at 100 µM [1, 5]: 77.7%
viability at 100 µM [1, 6]: 72.1%
viability at 100 µM [1, 7]: 66.3%
viability at 300 µM [1, 5]: 43.4%
viability at 300 µM [1, 6]: 58.5%
viability at 300 µM [1, 7]: 56.7%
HBV VIRION DNA DAY 0 (HBV; 10 µM, replicate wells): 58 pg/ml Culture Medium
HBV Virion DNA DAY 9 (HBV; 10 µM, day 9, sensitivity cutoff 0.1 pg/ml, replicate wells): 0.1 pg/ml Culture Medium
inhibition of the replication of HBV (HBV): significantly inhibited
EC50 (HIV-2): 26 nM
CC50 at 144 h [2]: > 100000 nM
inhibition at 0.001 µM (HIV-1 (strain LAV)): 3.8%
inhibition at 0.005 µM (HIV-1 (strain LAV)): -10.6%
inhibition at 0.01 µM (HIV-1 (strain LAV)): -1.8%
inhibition at 0.05 µM (HIV-1 (strain LAV)): 11.8%
inhibition at 0.1 µM (HIV-1 (strain LAV)): 12.7%
inhibition at 0.5 µM (HIV-1 (strain LAV)): 71.4%
EC50 (HIV-1 (strain LAV); read-out: Antiviral EC50): 0.84 µM
EC50 (HIV-1 (strain LAV); read-out: EC50): 0.84 µM
EC50 (HIV-1 (strain LAV); read-out: EC50:µM): 0.28 µM

Cc1cn(C2CSC(CO)O2)c(=O)[nH]c1=O (stereo not shown) [DLS-010]
CC50 [4]: > 100000 nM

Cc1cn([C@H]2CS[C@@H](CO)O2)c(=O)nc1N [DLS-011]
CC50 [4]: > 100000 nM

Nc1nc(=O)n([C@H]2CS[C@@H](CO)O2)cc1Br [DLS-021]
CC50 [4]: > 100000 nM

Nc1nc(=O)n([C@H]2CS[C@@H](CO)O2)cc1Cl [DLS-023]
CC50 [4]: > 100000 nM

Nc1nc(=O)n([C@H]2CS[C@@H](CO)O2)cc1I [DLS-026]
CC50 [4]: > 100000 nM

O=c1[nH]c(=O)n([C@H]2CS[C@@H](CO)O2)cc1Cl [DLS-028]
CC50 [4]: > 100000 nM

Nc1nc(=O)n([C@@H]2CS[C@H](CO)O2)cc1C(F)(F)F [DLS-053]
CC50 [4]: > 100000 nM
